Test results reported in publication PMC13193388, “Dimerization‐dependent NOTCH receptor transactivation unveils a class of highly selective NOTCH signalling inhibitors” (The Febs Journal, 2025).
Entries after “also recorded” stand apart in the source; their conditions may differ.

Columns and labels:
N2 receptor [1] = test: Ligand-dependent N2 receptor cleavage (western blot); assay type: cell-based, human; conditions: 293 T cells with HA-N2, recombinant DLL1; n = 3
Experimental: (§1) Human embryonic kidney (HEK) 293 T cells (RRID:CVCL_0063) were cultured in Dulbecco's Modified Eagle Medium (DMEM) (Gibco, Grand Island, NY, USA) supplemented with 10% fetal bovine serum (FBS) (Gibco). This cell line was obtained from the American Type Culture Collection (ATCC, Manassas, VA, USA). T‐ALL cell lines (kindly provided by Professor Jan Cools – VIB, Leuven): MOLT4 (RRID:CVCL_0013), ALL SIL (RRID:CVCL_1805), DND‐41 (RRID:CVCL_2022), HPB‐ALL (RRID:CVCL_1820), SUP‐T1 (RRID:CVCL_1714) and JURKAT (RRID:CVCL_0065), were cultured in Roswell Park Memorial Institute (RPMI) 1640 medium (Gibco) supplemented with 10% FBS (Gibco). Cells were maintained in a 5% CO2, 37 °C humidified incubator, tested monthly for mycoplasma contamination using a MycoAlert kit (Lonza, Walkersville, MD, USA), and checked for authenticity, in the last 3 years, by an in‐house service using short tandem repeat (STR) profiling. Transfections, lentivirus production and cell infections, western blotting and co‐immunoprecipitations have been described previously. […] RNA isolation, first‐strand cDNA synthesis and analysis of expression of transcripts by quantitative (q) PCR were performed as described previously. […] Expression of these proteins was determined using antibodies directed against either the coding region of the protein or the epitope tag. […]

N3 receptor [2] = test: N3 transactivation luciferase reporter assay; assay type: cell-based, human
Experimental: (§2) Reporter assays were performed as previously described. Briefly, stable cell lines expressing epitope‐tagged ligands and receptors were established via infection of cells with lentiviruses harbouring the appropriate ligand/receptor cDNA followed by selection with the encoded antibiotic (puromycin or neomycin). For transactivation assays, cells co‐expressing receptor and reporter were cocultured with cells stably expressing ligand alone (to enable transactivation). […] For each experiment, cells were seeded in triplicate in 12‐well plates. The NOTCH luciferase reporter harboured 10× Recombination Signal Binding Protein for Immunoglobulin kappa J (RBPJ) consensus DNA‐binding sites, and was cotransfected with thymidine kinase promoter‐driven Renilla luciferase control plasmid. Additionally, transfection efficiencies (routinely > 90%) were determined through visualization of cotransfected plasmid encoding the Tomato fluorescence reporter. Cells were lysed 36 h postplating, and luciferase activity was measured using a luciferase assay substrate (Promega). Luciferase activity was normalized by measuring Renilla luciferase activity (Promega). Where indicated, assays were performed in the presence or absence of 10 μM DAPT (Sigma‐Aldrich, St. Louis, MO, USA). Receptor and ligand protein levels were determined by western blotting. Experiments were performed three times. […]

N2 receptor [3] = test: Cell surface ligand-N2 receptor binding assay; assay type: cell-based, human; conditions: Fig. 4D; n = 3
Experimental: (§3) Confluent 10‐cm dishes of 293 T cells stably expressing HA epitope‐tagged NOTCH receptors were washed with ice‐cold phosphate buffered saline (PBS)/bovine serum albumen (BSA) (1 mg·mL^−1). Cells were stimulated with 50 μL of ligand (0.5 mg·mL^−1) in the presence of 1.5 mL of PBS/BSA (1 mg·mL^−1) for 1 h, with gentle shaking, at 4 °C. Cells were washed once with PBS. Cells were incubated with crosslinkers in the presence of 2 mL of ice‐cold PBS for 15 min, with gentle shaking at 4 °C: 0.27 μM disuccinimidyl suberate (DSS) (Pierce, Rockford, IL, USA) and 0.07 μM bis‐sulfosuccinimidyl suberate (BS3) (Pierce). Cells were washed once with ice‐cold detachment buffer (10 mM Tris–HCl pH 7.4, 1 mM EDTA pH 7.4, 10% glycerol), scraped off the plates in 1 mL of detachment buffer and transferred to Eppendorf tubes. Cell pellets were lysed in 1 mL of solubilization buffer (125 mM NaCl, 10 mM Tris–HCl pH 7.4, 1 mM EDTA pH 7.4, 1% Triton X‐100) on ice for 30 min and centrifuged at 13000 r.p.m. for 10 min. Supernatants were incubated with HA antibody (Covance, Princeton, NJ, USA) overnight at 4 °C. 50 μL of washed (4×) protein A/G beads (50% solution) was added, and samples were incubated for 45 min at 4 °C. The beads were washed four times with solubilization buffer. 50 μL of sample buffer was added and samples were boiled for 5–10 min prior to gel electrophoresis. […]

N3 receptor [4] = test: Cell surface ligand-N3 receptor binding assay; assay type: cell-based, human; conditions: 293 T cells stably expressing HA-tagged N3, crosslinked, western blot; n = 3
Experimental: as §3

NOTCH3-ECD = target: T1, NOTCH3-ECD (Homo sapiens, UniProt Q9UM47); test: SPR peptide binding to immobilized recombinant NOTCH3-ECD
T1 construct: we purified the complete (recombinant) N3 ECD from human tissue culture cells; made in house; host or cells: PEC.3.30 (modified Per.E2A human cells), purified from culture supernatant
Experimental: (§4) The NOTCH3‐ECD protein was produced using PEC.3.30, which is modified Per.E2A cells. DMEM cell supernatant containing the NOTCH3‐ECD protein was collected for purification. The supernatant was loaded onto a HisTrap high‐performance (HP) column (Cytiva, Uppsala, Sweden) and eluted with a gradient buffer that included 500 mM imidazole, 25 mM HEPES at pH 7.5 and 500 mM NaCl. The pooled fractions were concentrated using a 50 000 molecular weight cut‐off (MWCO) centrifugal filter (Millipore, Merck KGaA, Darmstadt, Germany), resulting in a buffer of 10 mM imidazole, 25 mM HEPES at pH 7.5 and 100 mM NaCl. The concentrated protein solution was subsequently loaded onto a Superdex 200 16/600 gel filtration column (Cytiva, Uppsala, Sweden), which was equilibrated with 25 mM HEPES at pH 7.5 and 100 mM NaCl. Similar yields of purified protein were obtained across all samples. The purified proteins were snap‐frozen in liquid nitrogen immediately after purification and stored at −80 °C.
Peptide binding to the NOTCH3‐ECD protein using SPR was performed using a Biacore T200. The NOTCH3‐ECD protein was immobilized onto a Biacore NTA Series S Sensor Chip (Cytiva), at a concentration of 0.1 μg·μL^−1 using Nickel‐NTA capture‐coupling, resulting in approximately 3500 RU of immobilized protein. Peptides were introduced using the ‘Eject rack’ function, followed by analysis. […]

N3 receptor [5] = test: N3 receptor dimerization (immobilized HIS-N3 with HA-N3, western blot); assay type: biochemical, human; conditions: peptides 10 μM unless otherwise stated, n = 3
Experimental: as §1, with “(Gibco).” for “(Gibco). Cells were maintained in a 5% CO2, 37 °C humidified incubator, tested monthly for mycoplasma contamination using a MycoAlert kit (Lonza, Walkersville, MD, USA), and checked for authenticity, in the last 3 years, by an in‐house service using short tandem repeat (STR) profiling. Transfections, lentivirus production and cell infections, western blotting and co‐immunoprecipitations have been described previously.”
(§5) Domains for recombinant protein production were cloned into the pET 28a vector in‐frame to an N‐terminal HIS6 epitope. […] Protein yields were determined by Bradford assay (Bio‐Rad, Hercules, CA, USA), and relative protein integrity and purity were determined by SDS/PAGE and Colloidal Blue staining (Invitrogen, Carlsbad, CA, USA). […] Proteins were separated by SDS/PAGE and associated proteins were detected by western blotting.

N2 receptor [6] = test: N2 receptor dimerization (immobilized HIS-N2 with HA-N2, western blot); assay type: biochemical, human; conditions: HIS-N2 on nickel beads with HA-N2, western blot; n = 3
Experimental: as §1, with “(Gibco).” for “(Gibco). Cells were maintained in a 5% CO2, 37 °C humidified incubator, tested monthly for mycoplasma contamination using a MycoAlert kit (Lonza, Walkersville, MD, USA), and checked for authenticity, in the last 3 years, by an in‐house service using short tandem repeat (STR) profiling. Transfections, lentivirus production and cell infections, western blotting and co‐immunoprecipitations have been described previously.”
as §5

N3 ECD homodimer = test: Nondenaturing gel: disruption of purified N3 ECD homodimer; assay type: biochemical, human; conditions: nondenaturing acrylamide gel, purified HIS-tagged N3 ECD; n = 3
Experimental: as §4

N2 receptor [7] = test: N2 transactivation luciferase reporter assay; assay type: cell-based, human; conditions: Fig. 4A,E, n = 3
Experimental: as §2

N3 receptor [8] = test: Ligand-dependent N3 receptor cleavage (western blot); assay type: cell-based, human; conditions: 293 T cells, recombinant DLL1, peptides 10 μM unless otherwise stated
Experimental: as §1

N3 receptor [9] = test: N3 downstream NOTCH target gene expression (real-time qPCR); assay type: cell-based, human; conditions: 293 T cells with HA-N3, recombinant DLL1, 3 h, n = 3
Experimental: as §1

NOTCH receptors = test: Endogenous HEY expression in 293 T cells expressing NOTCH receptors (real-time qPCR); assay type: cell-based, human; conditions: 3 h, DAPT 20 μM, n = 3 (Fig. 4F)
Experimental: as §1

T1 sequence (Q9UM47 40-1643 limits assumed): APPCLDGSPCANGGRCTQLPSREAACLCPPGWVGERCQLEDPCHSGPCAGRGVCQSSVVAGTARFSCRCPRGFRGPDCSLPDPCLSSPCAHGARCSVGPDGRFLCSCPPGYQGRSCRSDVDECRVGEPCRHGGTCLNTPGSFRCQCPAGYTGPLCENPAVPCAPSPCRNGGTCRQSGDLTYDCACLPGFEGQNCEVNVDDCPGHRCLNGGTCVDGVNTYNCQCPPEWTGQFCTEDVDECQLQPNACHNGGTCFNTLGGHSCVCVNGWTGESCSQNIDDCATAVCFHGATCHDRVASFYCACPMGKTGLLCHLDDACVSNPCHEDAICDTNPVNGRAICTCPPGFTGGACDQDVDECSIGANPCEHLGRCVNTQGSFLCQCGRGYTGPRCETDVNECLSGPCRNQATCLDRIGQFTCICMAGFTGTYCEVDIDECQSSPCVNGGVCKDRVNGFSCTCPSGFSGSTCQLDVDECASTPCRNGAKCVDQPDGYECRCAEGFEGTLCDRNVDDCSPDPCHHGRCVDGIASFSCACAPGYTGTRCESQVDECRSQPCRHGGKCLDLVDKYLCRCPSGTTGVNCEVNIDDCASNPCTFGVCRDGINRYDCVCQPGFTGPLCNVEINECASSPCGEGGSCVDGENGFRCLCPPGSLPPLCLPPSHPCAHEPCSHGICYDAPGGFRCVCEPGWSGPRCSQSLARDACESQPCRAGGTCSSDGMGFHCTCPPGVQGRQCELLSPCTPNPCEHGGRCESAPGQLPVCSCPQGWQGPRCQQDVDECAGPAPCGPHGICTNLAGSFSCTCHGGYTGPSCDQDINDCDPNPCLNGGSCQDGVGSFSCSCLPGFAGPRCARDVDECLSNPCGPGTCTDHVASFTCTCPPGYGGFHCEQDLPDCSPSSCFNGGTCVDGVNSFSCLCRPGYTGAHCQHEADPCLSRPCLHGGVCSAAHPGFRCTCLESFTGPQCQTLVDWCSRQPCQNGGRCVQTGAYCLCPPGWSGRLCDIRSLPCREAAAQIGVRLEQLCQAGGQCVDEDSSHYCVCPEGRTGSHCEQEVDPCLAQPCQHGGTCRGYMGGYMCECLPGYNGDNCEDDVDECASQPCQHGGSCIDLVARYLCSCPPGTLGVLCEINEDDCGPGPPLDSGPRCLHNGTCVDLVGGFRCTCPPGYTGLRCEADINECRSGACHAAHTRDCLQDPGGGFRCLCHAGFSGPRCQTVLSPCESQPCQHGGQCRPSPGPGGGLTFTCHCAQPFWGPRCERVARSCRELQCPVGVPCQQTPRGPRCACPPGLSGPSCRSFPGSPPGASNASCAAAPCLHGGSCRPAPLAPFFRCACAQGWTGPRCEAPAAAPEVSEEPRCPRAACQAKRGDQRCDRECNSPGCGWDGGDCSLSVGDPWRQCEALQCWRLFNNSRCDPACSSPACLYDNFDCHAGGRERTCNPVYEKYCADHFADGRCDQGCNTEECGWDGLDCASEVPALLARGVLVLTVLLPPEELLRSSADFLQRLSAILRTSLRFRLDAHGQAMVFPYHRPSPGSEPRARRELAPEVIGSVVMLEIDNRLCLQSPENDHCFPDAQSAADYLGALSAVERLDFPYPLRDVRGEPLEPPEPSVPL

Row | K D (range in words) (NOTCH3-ECD; pure recombinant N3 ECD purified from human cells) | effect on N2 receptor transactivation / downstream gene activation (N2 receptor [7]) | inhibition of downstream NOTCH target genes (N3) (N3 receptor [9]) | binding to N3 ECD (NOTCH3-ECD; control peptide with motif core mutated to glycine) | Sequence | effect on N2 receptor cleavage (N2 receptor [1]) | selectivity for N3 over N2 and N1 (N3 receptor [2]; Fig. 4E) | inhibition of N3 transactivation (NOTCH reporter) (N3 receptor [2]; coculture with ligand cells, lysed 36 h postplating, peptides 10 μM unless otherwise stated, n = 3) | effect on stable N2 receptor-ligand binding at the cell surface (N2 receptor [3]) | block of stable ligand-receptor binding at the cell surface (N3) (N3 receptor [4]) | inhibition of N3 receptor dimerization (N3 receptor [5]) | effect on N2 receptor dimerization (N2 receptor [6]) | disruption of N3 ECD homodimer (N3 ECD homodimer) | inhibition of ligand-dependent N3 receptor cleavage (N3 receptor [8]) | suppression of NOTCH-driven gene expression compared to DAPT (NOTCH receptors)
1 | low nM range | little detectable effect | robustly inhibit | – | EKYCADHFADGR [N34, N3 peptide (…) centred on the helix encompassing the core dimerization motif] | little detectable effect | exquisite selectivity for N3 (and not N2 or N1 | robustly inhibit; also recorded: inhibited N3 receptor activity | little detectable effect | efficiently blocked | robustly inhibit | little detectable effect | disrupted | robustly inhibit | as efficiently as the generic gamma secretase inhibitor (GSI), DAPT
2 | – | – | – | failed to bind efficiently to the N3 ECD | EKYGGGHFADGR [control peptide, control peptide (…), core of the dimerization motif mutated (to glycine), reference compound] | – | – | – | – | – | – | – | – | – | –
